Where a SMILES comes first, the peptide text is derived from it. [ ]: non-standard residue; d: D form. The star is where a group is joined. Pro(3S-CH2tBu) = CC(C)(C)C[C@H]1CCN[C@@H]1C(=O)O; X4 = CN(Cc1ccccc1)C(=O)/C=C/C(=O)N(CC(=O)O)N*; X3 = O=C(O)CN(N*)C(=O)COc1c(F)cccc1F; Quinaldoyl = O=C(c1ccc2ccccc2n1)*; X1 = c1ncc(CO*)s1
How the values were obtained:
Caspase-2 = molecular target: T1, Caspase-2 (Homo sapiens, UniProt P42575); test: Caspase-2 inhibition assay for irreversible inhibitors (kinact/KI, continuous method); assay type: biochemical; details: for Selectivity for Caspase 2: comparison of kinact/KI ratios regarding caspase 2 and 3
T1 construct: the Caspase-2 and Caspase-3 are human recombinant active enzymes; purchased Enzo Life ALX-201-057-U100
T1 sequence (P42575 170-325 limits assumed): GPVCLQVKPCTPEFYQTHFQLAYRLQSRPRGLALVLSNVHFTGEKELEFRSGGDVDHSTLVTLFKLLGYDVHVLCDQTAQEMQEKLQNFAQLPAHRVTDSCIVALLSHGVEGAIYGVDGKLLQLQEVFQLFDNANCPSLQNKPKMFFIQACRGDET
T1 sequence (P42575 348-452 limits assumed): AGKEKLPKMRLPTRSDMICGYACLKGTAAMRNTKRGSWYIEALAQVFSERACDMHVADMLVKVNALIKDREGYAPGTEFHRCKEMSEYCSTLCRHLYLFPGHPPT
Protocol: The efficiency of the comparative compound Δ2Me-TRP601, that is an already known group II Caspase inhibitor (inhibitor of Caspase-2, Caspase-3 and Caspase-7), has been assessed by a similar protocol described in Chauvier et al., 2011 Cell Death Dis 2011, 2:e203.
In this example, the Caspase-2 and Caspase-3 are human recombinant active enzymes that are respectively provided by Enzo Life® (ALX-201-057-U100) and R&D Systems® (707-C3-010/CF).
Caspase-2 is used at a final concentration of 0.1 nM in a “Caspase-2 buffer” containing 20 mM HEPES (pH 7.4), 5 mM DTT, 2 mM EDTA, 0.1% CHAPS and 800 mM succinate. Caspase-3 is used at a final concentration of 0.5 nM in a “Caspase-3 buffer” containing 20 mM HEPES (pH 7.4), 0.1% CHAPS, 5 mM DTT, and 2 mM EDTA.
The peptide substrates used for the enzymatic activity measurements are Ac-DEVD-AMC and Ac-VDVAD-AMC commercialized by EnzoLife® (respectively referenced ALX-260-031-M005 and ALX-260-060-M005). They are fluorogenic due to the presence of their AMC (7-amino-4-methylcoumarin) end group. The releasing of AMC enables to follow the enzymatic activity in fluorescence unit RFU over time in a 96-wells microplate.
The fluorescence values are measured at 37° C. with a spectrofluorometer with a microplate reader BMG FLUOstar OPTIMA. This apparatus is driven by the software Biolise® and is equipped with thermoelectric cooling device by Peltier effect. The mathematical analyses of the experimental data are done with the software Kaleidagraph®.
The inhibitory properties of the tested compounds are evaluated by the determination of the kinact/KI ratio regarding either Caspase-2 or Caspase-3 wherein: • kinact is the maximal inactivation rate constant, and • KI is the dissociation constant according to:
Said ratio is measured according to the continuous method (Allison R D. Curr Protoc Protein Sci. 2001 May; Chapter 3:Unit 3.5.; Chauvier et al., 2011 Cell Death Dis 2:e203; Tan et al., J Med Chem 2015, […]).
Briefly, Caspases activities were determined by monitoring the hydrolysis of fluorogenic substrates (λexc=355 nm, λem=460 nm) as a function of time, in the presence of untreated Caspases (control) or Caspases that had been incubated with a test compound, for 30 min minimum at 37° C. using a BMG Fluostar microplate reader (black 96-well microplates) and the initial velocity (V0) was determined from the linear portion of the progress curve.
Substrates and compounds were previously dissolved in DMSO at 10 mM, with the final solvent concentration kept at lower 4% (v/v). V0, relative velocities, KM and IC50 were determined from experimental data using Mars data Analysis 2.0 and Kaleidagraph softwares.
Inhibitor binding affinity (dissociation constant, KI) and first-order rate constant (k3) parameters were determined for Caspase-2 and Caspase-3 using the progress curve method. The ratio k3/KI was obtained by fitting the experimental data to the equations (F.U., fluorescence unit): […]
A continuous method of determination of the kinact/KI ratio was used for evaluating the inhibitory activity of the tested compounds against Caspase-2 and Caspase-3.
The reaction mixture is prepared by letting the enzyme and the buffer incubate at 37° C.
The tested inhibitory compounds are prepared at different concentrations (¼ IC50; ½ IC50; IC50; 2 IC50; 4 IC50) and put in the microplate.
Then the reaction mixture comprising the enzyme, the buffer and the substrate is rapidly added in the wells.
The activities of the enzyme are measured between 45 and 60 minutes.
The RFU (Relative Fluorescence Units)=f(times) curves are traced for each concentration of tested molecule according to the following equation: ((((−V0)*(exp(−kobs*m0)))+V0)/kobs*)+RFU0
in which: • V0 corresponds to the initial rate (RFU·s^−1) in the concentration of 0 of the tested inhibitory compound; • kobs is the inactivation rate constant; • RFU0 is the fluorescence value at t=0 min; and • m0 is the variable i.e. the inhibitor concentration.

HeLa cells = test: Protection against vincristine-induced cell death, propidium iodide flow cytometry; assay type: cell-based, human; set-up: Index of cell death: key to the marks not given beside the values
Protocol: Human HeLa cells are used in this model. HeLa cells (cervical cancer cell line) were obtained from American Type Cell Collection (ATCC), and were cultured in Dulbecco's Modified Eagle Medium (DMEM, High Glucose, GlutaMAX™, Pyruvate) (Gibco, Life technologies), supplemented with 10% FCS and antibiotics (Gibco, Life technologies).
Human HeLa cells are treated with a solution of Vincristine (Sigma Aldrich) (diluted in water at 5 mM). Vincristine works partly by binding to the Tubulin protein, stopping the cell from separating its chromosomes during the metaphase; the cell then undergoes apoptosis through a caspase-dependent process.
Propidium iodide (PI) (Sigma Aldrich) is used to evaluate plasma membrane permeabilisation, a sign of cell death.
24 hours before pharmacological treatment, HeLa cells were plated into 24-well plates. […] Cells were exposed or not (control), to 20 nM Vincristine for 48 hours.
The content of each well is collected is added to PBS and then centrifuged (900 rpm; 5 min).
The pellet obtained is put into 300 μL of a medium comprising propidium iodide and incubated (37° C., 5% CO2) in the dark for 5 minutes and then subjected to flow cytometry analysis.
Fluorescence-Activated Cell Sorting was performed using a FACSCalibur cytometer (Becton Dickinson, San Jose, Calif.). For each sample, data from 5,000 Cells were registered and analyzed with the CellQuest Pro software (Becton Dickinson). Analysis included FSC (Forward Scatter/relating to the cells'size) and SSC (Side Scatter/relating to the cells' granularity) parameters together with FL-1 and FL-3 channel.
The percentage of propidium iodide positive cells gives an estimation of cell death.

| SMILES | type of inhibition (irreversible) (Caspase-2) | Selectivity for Caspase 2 (Caspase-2) | other results |
| --- | --- | --- | --- |
| CC(C)[C@H](NC(=O)c1ccc2ccccc2n1)C(=O)N[C@@H](CC(=O)O)C(=O)N[C@H](C(=O)N1CC[C@H](CC(C)(C)C)[C@H]1C(=O)N[C@@H](CC(=O)O)C(=O)COc1c(F)cccc1F)C(C)C (single isomer, unassigned) [Compound 2 enantiomer a] |  |  | k3/KI Casp2 (Caspase-2; human recombinant Caspase-2 0.1 nM, 37° C.): 1 894 076 M^−1 · s^−1; Selectivity ratio (C2/C3) (Caspase-2; ratio of k3/KI Casp2 to Casp3): 721 |
| CC(C)[C@H](NC(=O)c1ccc2ccccc2n1)C(=O)N[C@@H](CC(=O)O)C(=O)N[C@H](C(=O)N1CC[C@H](CC(C)(C)C)[C@H]1C(=O)N[C@@H](CC(=O)O)C(=O)OCc1cncs1)C(C)C [Compound 3, (S)-4-(((S)-1-((2S,3S)-2-(((S)-3-carboxy-1-oxo-1-(thiazol-5 - ylmethoxy)propan-2-yl)carbamoyl)-3-neopenthylpyrrolidin-1-yl)-3-methyl-1-oxobutan-2-yl)amino)-3-((S)-3-methyl-2-(quinoline-2-carboxamido)butanamido)-4-oxobutanoic acid] (Quinaldoyl-VDV[Pro(3S-CH2tBu)]D-X1) |  |  | Index of cell death (HeLa cells; 20 nM Vincristine for 48 hours, propidium iodide positive cells): ++; Protection against apoptotic death induced by vincristine (HeLa cells; compound added 1 hour before vincristine): protect the cells against apoptotic death induced by vincristine in a dose-dependent manner |
| CC(C)[C@H](NC(=O)c1ccc2ccccc2n1)C(=O)N[C@@H](CC(=O)O)C(=O)N[C@H](C(=O)N1CC[C@H](CC(C)(C)C)[C@H]1C(=O)NN(CC(=O)O)C(=O)COc1c(F)cccc1F)C(C)C [Compound 4, (S)-4-(((S)-1-((2S,3S)-2-(2-(carboxymethyl)-2-(2-(2,6-difluorophenoxy)acetyl)hydrazinecarbonyl)-3-neopentylpyrrolidin-1-yl)-3-methyl-1-oxobutan-2-yl)amino)-3-((S)-3-methyl-2-(quinoline-2-carboxamido)butanamido)-4-oxobutanoic acid] (Quinaldoyl-VDV[Pro(3S-CH2tBu)]-X3) | irreversible inhibitor | yes |  |
| CC(C)[C@H](NC(=O)c1ccc2ccccc2n1)C(=O)N[C@@H](CC(=O)O)C(=O)N[C@H](C(=O)N1CC[C@H](CC(C)(C)C)[C@H]1C(=O)NN(CC(=O)O)C(=O)/C=C/C(=O)N(C)Cc1ccccc1)C(C)C [Compound 5, (S)-4-(((S)-1-((2S,3S)-2-(2-((E)-4-(benzyl(methyl)amino)-4-oxobut-2-enoyl)-2-(carboxymethyl)hydrazinecarbonyl)-3-neopentylpyrrolidin-1-yl)-3-methyl-1-oxobutan-2-yl)amino)-3-((S)-3-methyl-2-(quinoline-2-carboxamido)butanamido)-4-oxobutanoic acid] (Quinaldoyl-VDV[Pro(3S-CH2tBu)]-X4) | irreversible inhibitor | yes |  |
| CC(C)[C@H](NC(=O)[C@H](CC(=O)O)NC(=O)C(=O)Nc1ccccc1C(C)(C)C)C(=O)N1CC[C@H](CC(C)(C)C)[C@H]1C(=O)NN(CC(=O)O)C(=O)COc1c(F)cccc1F [Compound 6, (S)-3-(2-((2-(tert-butyl)phenyl)amino)-2-oxoacetamido)-4-(((S)-1-((2S,3S)-2-(2-(carboxymethyl)-2-(2-(2,6-difluorophenoxy)acetyl)hydrazinecarbonyl)-3-neopentylpyrrolidin-1-yl)-3-methyl-1-oxobutan-2-yl)amino)-4-oxobutanoic acid] | irreversible inhibitor | yes |  |

From US11407741B2, “Compounds and their use as selective inhibitors of caspase-2” (priority 2017, dated 2022)
